Reference: PMC9692552, “Activity and Synergy of Cu-ATCUN Antimicrobial Peptides” (International Journal of Molecular Sciences, 2022)
Like-named read-outs stand apart in the source and are kept apart here. Ends that are not written are not given here.

What was measured:
[1] = in SDS, as previously reported, cited from earlier work
From the text: Table 1 SMAP-29 derivatives used in this study and others with sequences and defining characteristics. ^a Estimated charge calculated from Innovagen’s peptide property calculator. ^b The helical activity of peptides as previously reported in the referenced manuscripts. ND: not determined. | column: % Helical (SDS) ^b

E. coli 25922 [2] = conditions: cited from earlier work
From the text: (§1) Table 2 MIC Values (µM) for SMAP-29 Derivatives. * Previously reported data from reference r comparison. | column: OV3 *; Cu-1 *; Cu-2 *; Cu-3 *; Cu-4 * || Table 4 MIC values for antimicrobial peptides utilized in this study. MIC values for a variety of the presented peptides have been previously determined in alternative conditions; values here are the result of experimental efforts to determine MICs under the conditions utilized for further study of FIC potential, with the exception of Sub5 and Sub5-01, previously characterized in our laboratory, w | column: Sub5; Sub5-01

S. aureus 43300 (MRSA) = conditions: cited from earlier work
From the text: as §1

A. baumannii BAA747 [3] = conditions: cited from earlier work
From the text: as §1

P. aeruginosa 27583 = conditions: cited from earlier work
From the text: as §1

K. pneumoniae 700603 = conditions: cited from earlier work
From the text: as §1

E. faecium 700221 (VRE) = conditions: cited from earlier work
From the text: as §1

MRSA 43300 [4] = test: FIC of peptide pairs (two-way dilution, 96-well plate); type: cell-based, S. aureus; conditions: single peptide on the FIC plate
Experimental: (§2) Determining MIC values informed decisions on testing peptides in combination. Fractional inhibitory concentrations determine the ability of test articles to act in concert against a pathogen. FIC determination is experimentally similar to MIC determination, except one test article is diluted down the wells and another is diluted across the wells of the 96-well plate in order to test the synergism of two peptides. […] Synergy is defined as an FIC of less than or equal to 0.5, meaning there is a four-fold reduction in the concentration of each peptide required for inhibition. Any number above 4 indicates a deleterious interaction that reduces the effectiveness of each peptide, and a value between 0.5 and 1 can be considered additive (Equation (2)).
(§3) Fractional inhibitory concentrations (FICs) were determined in a manner similar to MIC determinations but with serial dilutions of two peptides running both horizontally and vertically across the 96-well plate. Determination of the FIC can be seen in Equation (2), where FIC is the fractional inhibitory concentration, [A] is the concentration of substrate A at MIC in combination, [B] is the concentration of substrate B at MIC in combination, and MICA and MICB are the MIC of substrate A and substrate B, respectively. FIC = fractional inhibitory concentration, [A] = concentration of A at MIC in combination, [B] = concentration of B at MIC in combination, MICA = minimum inhibitory concentration of A, and MICB = minimum inhibitory concentration of B. When FIC ≤ 0.5 the results are synergistic. If FIC > 4, the results are antagonistic, and when FIC > 0.5, the results are indifferent or additive. (2) FIC=[A]/MICA+ [B]/MICB

MRSA 43300 [5] = tested on: MRSA 43300; set-up: method as in ref [13] of the supplement ([11] in main text); conditions: single peptide on the FIC plate, cited from earlier work
E. coli 25922 [6] = conditions: single peptide on the FIC plate, cited from earlier work
From the text: Figure 6 Summary of peptide interactions in E. coli 25922 from data presented in Results and Supplemental Material. Synergistic (or non-synergistic) interactions for CP10A, TempL, OV3-00 and OV3-01 with other peptides are grouped as shown. Parental and ATCUN derivatives are outlined in the same shape with the average FIC value shown in parentheses. TEXT PRINTED IN THE PICTURE: Sub5: E. coli 25922, CP10A, Synergistic: (0.4); E. coli 25922, TempL, Additive/Indifferent: (1) | Sub5-01: E. coli 25922, CP10A, Synergistic: (0.42); E. coli 25922, TempL, Additive/Indifferent: (0.78) | Mag2-01: E. coli ... || page 3: For Tables S3-S10: FIC Index = [A]/[MICA] + [B]/[MICB], where [A] and [B] are the concentrations of respective peptides at which no growth was observed when dosed in combination, and [MICA] and [MICB] are the concentrations where no growth was observed when dosed separately. The data from each experiment repeated in duplicate or triplicate is shown and bolded data in the final row is the average FIC value. Error is reported as the standard deviation of the mean. Table S3. FIC values for Interactions of CP10A and TempL in E. coli 25922. * Previously reported data from reference for ... || page 4: Table S4. FIC values for the non-ATCUN containing parental peptides in E. coli 25922. A CP10A CP10A CP10A TempL TempL TempL TempL B Sub5 13 Mag2 OV3-00 Sub5 TRP Mag2 OV3-00 [A] 2/4/4 2/2/1 2/2/0.5 2/2/2 1/1/1 0.25/1/2 2/2/2 MICA 16/16/16 4/4/2 4/4/4 4/4/4 2/4/2 4/4/4 16/16/16 [B] 1/0.5/0.25 2/2/2 0.5/1/1 4/4/4 4/4/4 4/2/0.125 4/1/1 MICB 4/2/4 4/4/4 2/2/2 8/8/8 8/8/8 8/8/8 8/2/2 FIC 0.375/0.328/0.5 1/1/1 0.75/1/0.625 1/1/1 1/0.75/1 0.56/0.5/0.52 0.625/0.625/0.625 FICAvg 0.40 ± 0.04 1 0.78 ± 0.2 1 0.9 ± 0.14 0.53 ± 0.03 0.625 Table S5. FIC Values for ATCUN peptide derivatives in MRSA 433 ...

E. coli 25922 [7] = test: FIC of peptide pairs (two-way dilution, 96-well plate); type: cell-based, Escherichia coli; conditions: single peptide on the FIC plate
Experimental: as §2, §3

A. baumannii BAA747 [8] = tested on: A. baumannii BAA747; set-up: method as in ref 13 of the supplement ([11] in main text); conditions: Acinetobacter baumannii, single peptide on the FIC plate, ref 13 of the supplement ([11] in main text), cited from earlier work
[9] = previously reported data, ref [8]
[10] = P. aeruginosa (27583), previously reported data, ref [8]
[11] = replicate 1, ref [13] of the supplement ([11] in main text)
[12] = replicate 2, ref [13] of the supplement ([11] in main text)
[13] = replicate 3, ref [13] of the supplement ([11] in main text)
[14] = taken from earlier work, ref [7]
[15] = P. aeruginosa 27583, taken from earlier work, ref [7]

## GGHGIRRIIRKIIHIIKKGGC-NH2 [Cu-2, ATCUN-OV3 derivative from the authors' earlier work]
[1]; ref [8]
  % Helical (SDS): 56% [8]
E. coli 25922 [2]; [9]
  MIC: 3 µM
S. aureus 43300 (MRSA); [9]
  MIC: 4 µM
A. baumannii BAA747 [3]; [9]
  MIC: 9.3 µM
P. aeruginosa 27583; [10]
  MIC: 12 µM
K. pneumoniae 700603; [9]
  MIC: >16 µM
E. faecium 700221 (VRE); [9]
  MIC: 8 µM

## GGHIRRIIRKIIHIIKK-NH2 [Cu-3, ATCUN-OV3 derivative from the authors' earlier work]
[1]; ref [8]
  % Helical (SDS): 35% [8]
E. coli 25922 [2]; [9]
  MIC: >16 µM
S. aureus 43300 (MRSA); [9]
  MIC: 16 µM
A. baumannii BAA747 [3]; [9]
  MIC: 5.3 µM
P. aeruginosa 27583; [10]
  MIC: >16 µM
K. pneumoniae 700603; [9]
  MIC: 16 µM
E. faecium 700221 (VRE); [9]
  MIC: 8 µM

## GGHGIRRIIRKIIHIKK-NH2 [Cu-1, ATCUN-OV3 derivative from the authors' earlier work]
[1]; ref [8]
  % Helical (SDS): 14% [8]
E. coli 25922 [2]; [9]
  MIC: >16 µM
S. aureus 43300 (MRSA); [9]
  MIC: 16 µM
A. baumannii BAA747 [3]; [9]
  MIC: 2.7 µM
P. aeruginosa 27583; [10]
  MIC: >16 µM
K. pneumoniae 700603; [9]
  MIC: 16 µM
E. faecium 700221 (VRE); [9]
  MIC: 16 µM

## GGHIRRIIRKIIHIIKKGGC-NH2 [Cu-4, ATCUN-OV3 derivative from the authors' earlier work]
[1]; ref [8]
  % Helical (SDS): 64% [8]
E. coli 25922 [2]; [9]
  MIC: 1.3 µM
S. aureus 43300 (MRSA); [9]
  MIC: 1.5 µM
A. baumannii BAA747 [3]; [9]
  MIC: 10.7 µM
P. aeruginosa 27583; [10]
  MIC: 4 µM
K. pneumoniae 700603; [9]
  MIC: 8 µM
E. faecium 700221 (VRE); [9]
  MIC: 3.3 µM

## KNLRRIIRKIIHIIKKYGPTILRIIRIIG [OV, SMAP-29 derivative]
[1]; ref [17]
  % Helical (SDS): 86% [17]

## RRWKIVVIRWRR-NH2 [Sub5, bactenecin derivative]
MRSA 43300 [4]; replicate 1
  MICA/MICB, concentration with no growth when dosed separately: 4 µM
MRSA 43300 [4]; replicate 2
  MICA/MICB, concentration with no growth when dosed separately: 4 µM
MRSA 43300 [4]; replicate 3
  MICA/MICB, concentration with no growth when dosed separately: 4 µM
MRSA 43300 [5]; [11]
  MICA/MICB, concentration with no growth when dosed separately: 1 µM
MRSA 43300 [5]; [12]
  MICA/MICB, concentration with no growth when dosed separately: 2 µM
MRSA 43300 [5]; [13]
  MICA/MICB, concentration with no growth when dosed separately: 2 µM
E. coli 25922 [6]; [11]
  MICA/MICB, concentration with no growth when dosed separately: 4 µM
E. coli 25922 [6]; [12]
  MICA/MICB, concentration with no growth when dosed separately: 2 µM
E. coli 25922 [6]; [13]
  MICA/MICB, concentration with no growth when dosed separately: 4 µM
E. coli 25922 [2]; [14]
  MIC: 3.3 µM
S. aureus 43300 (MRSA); [14]
  MIC: 2 µM
A. baumannii BAA747 [3]; [14]
  MIC: 0.8 µM
P. aeruginosa 27583; [15]
  MIC: 4 µM
K. pneumoniae 700603; [14]
  MIC: 1.7 µM
E. faecium 700221 (VRE); [14]
  MIC: 0.5 µM
E. coli 25922 [7]; replicate 1
  MICA/MICB, concentration with no growth when dosed separately: 8 µM
E. coli 25922 [7]; replicate 2
  MICA/MICB, concentration with no growth when dosed separately: 8 µM
E. coli 25922 [7]; replicate 3
  MICA/MICB, concentration with no growth when dosed separately: 8 µM
A. baumannii BAA747 [8]; replicate 1
  MICA/MICB, concentration with no growth when dosed separately: 2 µM
A. baumannii BAA747 [8]; replicate 2
  MICA/MICB, concentration with no growth when dosed separately: 2 µM
A. baumannii BAA747 [8]; replicate 3
  MICA/MICB, concentration with no growth when dosed separately: 2 µM

## GGHRRWKIVVIRWRR-NH2 [Sub5-01, ATCUN derivative of Sub5, previously characterized by the authors]
MRSA 43300 [4]; replicate 1
  MICA/MICB, concentration with no growth when dosed separately: 4 µM
MRSA 43300 [4]; replicate 2
  MICA/MICB, concentration with no growth when dosed separately: 4 µM
MRSA 43300 [4]; replicate 3
  MICA/MICB, concentration with no growth when dosed separately: 4 µM
MRSA 43300 [5]; [11]
  MICA/MICB, concentration with no growth when dosed separately: 16 µM
MRSA 43300 [5]; [12]
  MICA/MICB, concentration with no growth when dosed separately: 16 µM
MRSA 43300 [5]; [13]
  MICA/MICB, concentration with no growth when dosed separately: 16 µM
E. coli 25922 [6]; [11]
  MICA/MICB, concentration with no growth when dosed separately: 4 µM
E. coli 25922 [6]; [12]
  MICA/MICB, concentration with no growth when dosed separately: 4 µM
E. coli 25922 [6]; [13]
  MICA/MICB, concentration with no growth when dosed separately: 4 µM
E. coli 25922 [2]; [14]
  MIC: 2.7 µM
S. aureus 43300 (MRSA); [14]
  MIC: 1 µM
A. baumannii BAA747 [3]; [14]
  MIC: 1 µM
P. aeruginosa 27583; [15]
  MIC: 2 µM
K. pneumoniae 700603; [14]
  MIC: 2 µM
E. faecium 700221 (VRE); [14]
  MIC: 0.4 µM
E. coli 25922 [7]; replicate 1
  MICA/MICB, concentration with no growth when dosed separately: 8 µM
E. coli 25922 [7]; replicate 2
  MICA/MICB, concentration with no growth when dosed separately: 8 µM
E. coli 25922 [7]; replicate 3
  MICA/MICB, concentration with no growth when dosed separately: 8 µM
A. baumannii BAA747 [8]; replicate 1
  MICA/MICB, concentration with no growth when dosed separately: 1 µM
A. baumannii BAA747 [8]; replicate 2
  MICA/MICB, concentration with no growth when dosed separately: 2 µM
A. baumannii BAA747 [8]; replicate 3
  MICA/MICB, concentration with no growth when dosed separately: 1 µM

## IRRIIRKIIHIIKK-NH2 [OV3, SMAP-29 derivative, parental peptide of Cu-1 to Cu-4]
[1]; ref [8]
  % Helical (SDS): 38% [8]
E. coli 25922 [2]; [9]
  MIC: >16 µM
S. aureus 43300 (MRSA); [9]
  MIC: >16 µM
A. baumannii BAA747 [3]; [9]
  MIC: 1 µM
P. aeruginosa 27583; [10]
  MIC: 16 µM
K. pneumoniae 700603; [9]
  MIC: >16 µM
E. faecium 700221 (VRE); [9]
  MIC: 16 µM
